Consider 3 molecules from US4335041A, “High sensitivity assays for angiotensin converting enzyme” (Ventrex Laboratories, Inc., priority 1980, dated 1982).

Peptide text beside a SMILES is read from it. * marks the point of attachment. Bz = O=C(c1ccccc1)*

The subject of data set [1] is enzyme isolated from hog lung. The conditions noted are these: cited from earlier work.
The next data set concerns the target T1, Guinea pig urinary ACE (Cavia porcellus, UniProt H0UWL7).
T1 sequence (H0UWL7 33-1302): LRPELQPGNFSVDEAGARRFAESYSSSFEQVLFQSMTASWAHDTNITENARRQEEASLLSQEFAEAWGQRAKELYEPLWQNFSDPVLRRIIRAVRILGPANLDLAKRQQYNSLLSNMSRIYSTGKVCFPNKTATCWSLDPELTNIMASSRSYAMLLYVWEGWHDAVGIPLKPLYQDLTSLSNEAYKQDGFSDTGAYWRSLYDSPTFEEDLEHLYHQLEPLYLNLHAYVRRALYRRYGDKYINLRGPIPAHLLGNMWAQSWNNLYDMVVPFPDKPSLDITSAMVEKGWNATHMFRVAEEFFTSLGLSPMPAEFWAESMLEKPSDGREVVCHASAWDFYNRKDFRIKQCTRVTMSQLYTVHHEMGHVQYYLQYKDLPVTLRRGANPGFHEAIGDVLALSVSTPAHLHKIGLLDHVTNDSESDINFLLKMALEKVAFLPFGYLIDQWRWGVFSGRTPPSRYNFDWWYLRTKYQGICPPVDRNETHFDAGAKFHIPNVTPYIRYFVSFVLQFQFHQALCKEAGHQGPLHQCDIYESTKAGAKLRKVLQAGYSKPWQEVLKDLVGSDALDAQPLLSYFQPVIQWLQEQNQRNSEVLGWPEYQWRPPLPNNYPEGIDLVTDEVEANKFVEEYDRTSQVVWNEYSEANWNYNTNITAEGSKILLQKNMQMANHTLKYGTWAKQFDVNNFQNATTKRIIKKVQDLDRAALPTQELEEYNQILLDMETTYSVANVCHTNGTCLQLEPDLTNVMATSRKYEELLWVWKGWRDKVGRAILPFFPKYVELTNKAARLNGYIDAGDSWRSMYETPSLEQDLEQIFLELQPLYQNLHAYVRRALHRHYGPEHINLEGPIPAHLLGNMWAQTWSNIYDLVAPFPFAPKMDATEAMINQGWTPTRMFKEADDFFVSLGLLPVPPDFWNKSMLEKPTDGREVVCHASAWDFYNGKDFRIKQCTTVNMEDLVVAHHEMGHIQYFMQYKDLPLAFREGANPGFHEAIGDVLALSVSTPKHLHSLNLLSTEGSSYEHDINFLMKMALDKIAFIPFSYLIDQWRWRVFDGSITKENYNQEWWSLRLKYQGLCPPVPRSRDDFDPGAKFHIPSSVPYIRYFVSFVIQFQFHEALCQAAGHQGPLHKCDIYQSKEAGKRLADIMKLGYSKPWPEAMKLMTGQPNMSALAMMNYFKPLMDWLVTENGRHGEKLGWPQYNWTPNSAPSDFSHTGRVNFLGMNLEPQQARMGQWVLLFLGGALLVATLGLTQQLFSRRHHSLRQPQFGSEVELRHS
The data set can be described thus: Sulfate and chloride effects on substrate hydrolysis (Example 3). The data set is classed as biochemical. The method, then:
^3 H-HipHisLeu prepared as described in Example 2 and ^3 H-benzoylPheAlaPro, prepared as described in Example 5, were used as substrates for Guinea pig urinary ACE, prepared as described in Example 1. […] All incubations were carried out at 37° C. for 10 minutes. Enzyme was diluted in the reaction buffer to provide not more than 15% hydrolysis during the 10 minute incubation. Enzyme, 50 μl, was mixed with 50 μl ^3 H-HipHisLeu, 0.2 mM, having 150,000 total counts pr minute (cpm), or with ^3 H-benzoylPheAlaPro having 10,000 cpm to 200,000 cpm. Reactions were carried out in the presence of 0.1 M NaCl or in the absence of NaCl, with varying amounts of Na2 SO4 added.

A further data set addresses T2, Guinea pig serum ACE (Cavia porcellus, UniProt H0UWL7).
T2 sequence (H0UWL7 33-1234): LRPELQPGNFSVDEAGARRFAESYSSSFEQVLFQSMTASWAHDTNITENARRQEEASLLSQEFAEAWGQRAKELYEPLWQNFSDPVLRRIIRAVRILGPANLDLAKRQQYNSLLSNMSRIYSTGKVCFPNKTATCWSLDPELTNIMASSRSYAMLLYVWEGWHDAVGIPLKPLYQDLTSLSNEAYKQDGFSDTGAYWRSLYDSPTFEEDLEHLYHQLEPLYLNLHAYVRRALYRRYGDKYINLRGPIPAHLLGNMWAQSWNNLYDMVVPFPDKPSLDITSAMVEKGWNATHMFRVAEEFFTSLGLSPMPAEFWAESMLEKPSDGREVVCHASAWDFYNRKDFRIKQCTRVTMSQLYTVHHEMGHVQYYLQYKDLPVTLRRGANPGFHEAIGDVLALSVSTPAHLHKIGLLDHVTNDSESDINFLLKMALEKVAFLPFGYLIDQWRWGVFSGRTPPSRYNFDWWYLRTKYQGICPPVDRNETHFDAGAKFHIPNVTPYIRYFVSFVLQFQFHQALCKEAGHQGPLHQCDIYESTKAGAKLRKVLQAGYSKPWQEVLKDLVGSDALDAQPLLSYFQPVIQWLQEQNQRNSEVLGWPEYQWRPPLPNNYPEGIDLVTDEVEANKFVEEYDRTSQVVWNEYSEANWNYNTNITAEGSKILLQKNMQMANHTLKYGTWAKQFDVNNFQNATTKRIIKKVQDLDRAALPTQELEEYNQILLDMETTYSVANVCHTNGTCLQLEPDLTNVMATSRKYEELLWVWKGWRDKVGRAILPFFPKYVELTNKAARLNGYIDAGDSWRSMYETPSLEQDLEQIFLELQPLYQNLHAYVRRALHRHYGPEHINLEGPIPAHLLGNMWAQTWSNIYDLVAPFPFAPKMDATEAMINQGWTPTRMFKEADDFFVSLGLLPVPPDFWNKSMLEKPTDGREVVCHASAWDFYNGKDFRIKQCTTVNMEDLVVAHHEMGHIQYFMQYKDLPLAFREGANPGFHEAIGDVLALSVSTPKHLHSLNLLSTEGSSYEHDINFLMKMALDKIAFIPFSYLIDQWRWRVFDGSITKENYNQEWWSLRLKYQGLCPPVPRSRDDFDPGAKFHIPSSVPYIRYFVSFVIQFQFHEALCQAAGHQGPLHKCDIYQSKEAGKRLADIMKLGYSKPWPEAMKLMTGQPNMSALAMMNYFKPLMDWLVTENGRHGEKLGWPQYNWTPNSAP
The data set can be described thus: Kinetics of sulfate-stimulated HipHisLeu hydrolysis (Example 4). The data set is classed as biochemical. The method, then:
In each assay, 50 μl of Guinea pig serum diluted 1-20 (v/v) in the reaction buffer was mixed with 50 μl of buffer containing sufficient ^3 H-HipHisLeu to provide approximately 100,000 cpm total, together with sufficient unlabeled HipHisLeu to produce the desired substrate concentrations, as indicated in Table 2. […] The reaction mixture was then extracted with 1 ml ethyl acetate. 500 μl of the ethyl acetate fraction was sampled and counted in a scintillation counter.

The test system of the next data set is ACE from rabbit lung. The settings on record: sodium chloride removed; cited from earlier work.
Another data set concerns ACE. The data set can be described thus: Response of 3H-benzoylPheAlaPro hydrolysis to added NaCl. In kind it is biochemical. The settings on record: 0.05 M added sodium chloride, 0.05 M Hepes pH 8.0. The protocol:
An even more sensitive assay for ACE activity has been developed using the novel compound ^3 H-benzoylPheAlaPro as substrate. This new substrate can be used to assay ACE in human urine in incubations as short as 15 minutes. The response of this substrate to ions is strikingly different from the response of HipHisLeu. […] This difficulty has been solved by the proper choice of extracting solvent. While a variety of organic solvents may be suitable for the extraction step, it is preferred to employ toluene. Approximately 88% of ^3 H-benzoylPhe enters the toluene phase while only 6% of the unhydrolyzed substrate enters the toluene phase, when toluene and the acidified reaction mixture are in approximately equal volumes at room temperature.

Data set [2] can be described thus: Solvent extraction from acidified reaction mixture. In kind it is physicochemical. An excerpt:
While a variety of organic solvents may be suitable for the extraction step, it is preferred to employ toluene.

The mark [3] stands for this setting: sulfate 0.6 M, 0.1 M chloride, pH 8.

Regarding `O=C(O)CNC(=O)CNC(=O)CNC(=O)c1ccccc1` [HipGlyGly] (Bz-Gly-Gly-Gly-OH), the “hydrolysis in the absence of NaCl” value in data set [1] (no NaCl, Na2SO4 0.001 M to 0.6 M) is “no hydrolysis”. In data set [1] (setting [3]), the “decrease of Km by sulfate” value is on record as “about 15%” and the “increase of Vmax by sulfate” value is on record as “about 5 fold”.

For `CC(C)C[C@H](NC(=O)[C@H](Cc1c[nH]cn1)NC(=O)CNC(=O)c1ccccc1)C(=O)O` [HipHisLeu] (Bz-Gly-His-Leu-OH), the “Reaction Velocity - Percent of Substrate Hydrolyzed in 10 minutes” value (“Reaction Velocity - Percent” for short) was determined as 0% on Guinea pig urinary ACE (0.05M Hepes pH 8.0, 0.0M NaCl, Na2SO4 0); 0% at Guinea pig urinary ACE (0.05M Hepes pH 8.0, 0.0M NaCl, Na2SO4 0.1); 0% at Guinea pig urinary ACE (0.05M Hepes pH 8.0, 0.0M NaCl, Na2SO4 0.2); 0% at Guinea pig urinary ACE (0.05M Hepes pH 8.0, 0.0M NaCl, Na2SO4 0.3); 0.1% on Guinea pig urinary ACE (0.05M Hepes pH 8.0, 0.0M NaCl, Na2SO4 0.4); 0.1% at Guinea pig urinary ACE (0.05M Hepes pH 8.0, 0.0M NaCl, Na2SO4 0.5). Besides, the “Reaction Velocity - Percent” value on Guinea pig urinary ACE (0.05M Hepes pH 8.0, 0.0M NaCl, Na2SO4 0.6) is 0.25%; on Guinea pig urinary ACE (0.05M Hepes pH 8.0, 0.0M NaCl, Na2SO4 0.7) it was 0.25%; at Guinea pig urinary ACE (0.05M Hepes pH 8.0, 0.0M NaCl, Na2SO4 0.75) it was 0.25%; on Guinea pig urinary ACE (0.05M Hepes pH 8.0, 0.0M NaCl, Na2SO4 0.8) it was 0.25%; at Guinea pig urinary ACE (0.05M Hepes pH 8.0, 0.0M NaCl, Na2SO4 0.9), 0.7%; on Guinea pig urinary ACE (0.05M Hepes pH 8.0, 0.0M NaCl, Na2SO4 1.2), 3.9%. Moreover, the “Reaction Velocity - Percent” value on Guinea pig urinary ACE (0.05M Hepes pH 8.0, 0.1M NaCl, Na2SO4 0) was determined as 0.3%; at Guinea pig urinary ACE (0.05M Hepes pH 8.0, 0.1M NaCl, Na2SO4 0.4), 4.1%; on Guinea pig urinary ACE (0.05M Hepes pH 8.0, 0.1M NaCl, Na2SO4 0.6), 8.3%. Also, the “reduction of Km by sulfate” value at Guinea pig serum ACE (0.75 M Na2SO4 in reaction mixture containing 0.1 M NaCl) is reported as “about 15 fold”. Besides, the “decrease in Km by sulfate” value at Guinea pig serum ACE (sulfate ion 0.75-1.1 M) was 14 fold. Also, the “inhibition on removal of sodium chloride from the reaction medium” value in the data set on ACE from rabbit lung is listed as 92%.

Consider `C[C@H](NC(=O)[C@H](Cc1ccccc1)NC(=O)c1ccccc1)C(=O)N1CCC[C@H]1C(=O)O` [benzoylPheAlaPro, benzoyl-Phe-Ala-Pro] (Bz-Phe-Ala-Pro-OH), for which the “Reaction Velocity - Percent” value on Guinea pig urinary ACE (0.05 Hepes pH 8.0, 0.1 M NaCl, Na2SO4 0) is reported as 4.4%; on Guinea pig urinary ACE (0.05 Hepes pH 8.0, 0.1 M NaCl, Na2SO4 0.1) it was 5.0%; on Guinea pig urinary ACE (0.05 Hepes pH 8.0, 0.1 M NaCl, Na2SO4 0.5) it was 5.6%. Besides, the “increase of apparent reaction velocity by added NaCl” value in the data set on ACE was “approximately 3 fold”. For the same molecule, the “extraction into ethyl acetate” value in data set [2] (reaction terminated with dilute hydrochloric acid) was “extracted almost quantitatively”. The “fraction entering the toluene phase” value in data set [2] (toluene and acidified reaction mixture in approximately equal volumes, room temperature) was found to be 6%.
